# Experiments:
# Assay type in all cases: in vivo, mouse
# [1] = test system: apolipoprotein B mRNA; experiment: Target mRNA levels in liver of ApoE knockout mice, RT-PCR; conditions: six weeks
# Method: Female ApoE knockout mice ranged in age from 5 to 7 weeks and were placed on a normal diet for 2 weeks before study initiation. ApoE knockout mice were then fed ad libitum a 60% fat diet, with 0.15% added cholesterol to induce dyslipidemia and obesity. Control animals were maintained on a high-fat diet with no added cholesterol After overnight fasting, mice from each group were dosed intraperitoneally every three days with saline, 50 mg/kg of a control antisense oligonucleotide (ISIS 29837 […]; SEQ ID NO. 124) or 5, 25 or 50 mg/kg ISIS 147764 (SEQ ID No: 109) for six weeks.
# At study termination and forty eight hours after the final injections, animals were sacrificed and evaluated for target mRNA levels in liver by RT-PCR methods verified by Northern Blot analysis, glucose levels, cholesterol and lipid levels by HPLC separation methods and triglyceride and liver enzyme levels (perfomed by LabCorp Preclinical Services; San Diego, Calif.). Data are normalized to saline controls.
# [2] = Serum cholesterol and triglyceride levels, high fat fed mice, 6 week study; conditions: for Percent Inhibition of cholesterol levels: normalized to saline; for triglycerides / serum cholesterol: study end; for triglycerides: control 115 mg/dL; for serum cholesterol: control 240 mg/dL
# Method: (§1) Male C57BL/6 mice (n=8) receiving a high fat diet (60% kcal fat) were evaluated over the course of 6 weeks for the effects of treatment with the antisense oligonucleotide, ISIS 147764. Control animals received saline treatment (50 mg/kg). A subset of animals received a daily oral dose (20 mg/kg) atorvastatin calcium (Lipitor®, Pfizer Inc.). All mice, except atorvastatin-treated animals, were dosed intraperitoneally every three days (twice a week), after fasting overnight, with 5, 25, 50 mg/kg ISIS 147764 (SEQ ID No: 109) or saline (50 mg/kg) for six weeks. Serum cholesterol and lipoproteins were analyzed at 0, 2 and 6 week interim timepoints. At study termination, animals were sacrificed 48 hours after the final injections and evaluated for levels of target mRNA levels in liver, cholesterol, lipoprotein, triglyceride, liver enzyme (AST and ALT) and serum glucose levels as well as body, liver, spleen and fat pad weights.
# (§2) Male C57BL/6 mice (n=8) receiving a high fat diet (60% kcal fat) were evaluated over the course of 6 weeks for the effects of ISIS 147764 on serum cholesterol and triglyceride levels. Control animals received saline treatment (50 mg/kg). Mice were dosed intraperitoneally every three days (twice a week), after fasting overnight, with 5, 25, 50 mg/kg ISIS 147764 (SEQ ID No: 109) or saline (50 mg/kg) for six weeks.
# Values in the table are expressed as percent inhibition and are normalized to the saline control.
# In addition to serum cholesterol, at study termination, animals were sacrificed 48 hours after the final injections and evaluated for triglyceride levels.
# [3] = Liver enzyme levels, lean vs high fat fed C57BL/6 mice; conditions: for Liver Enzymes ALT Percent Change / Liver Enzymes AST Percent Change: 50 mg/kg i.p. every three days, six weeks
# Method: (§3) Male C57BL/6 mice were divided into two matched groups; (1) wild-type control animals (lean animals) and (2) animals receiving a high fat diet (60% kcal fat). Control animals received saline treatment and were maintained on a normal rodent diet. After overnight fasting, mice from each group were dosed intraperitoneally every three days with saline or 50 mg/kg ISIS 147764 (SEQ ID No: 109) for six weeks. At study termination and forty eight hours after the final injections, animals were sacrificed and evaluated for target mRNA levels in liver, cholesterol and triglyceride levels, liver enzyme levels and serum glucose levels.
# [4] = Serum AST and ALT levels, high fat fed mice, 6 week study; conditions: for ALT levels / AST levels: 6 weeks; for ALT levels: saline control 25 IU/L; for AST levels: saline control 65 IU/L
# Method: as §1
# as §2, with “liver enzyme (AST” for “serum cholesterol”, “ALT)” for “triglyceride”
# Values in the table are expressed as IU/L. Increased levels of the liver enzymes ALT and AST indicate toxicity and liver damage.
# [5] = Serum glucose levels, high fat fed mice, 6 week study; conditions: study termination, saline control 300 mg/dL
# Method: as §1
# as §2, with “glucose” for “cholesterol and triglyceride”
# At study termination, animals were sacrificed 48 hours after the final injections and evaluated for serum glucose levels. […] Mice treated with atorvastatin at a daily oral dose of 20 mg/kg had serum glucose levels of 215 mg/dL.
# [6] = Cholesterol, lipoprotein, triglyceride and serum glucose levels, lean vs high fat fed C57BL/6 mice; conditions: 50 mg/kg i.p. every three days, six weeks
# Method: as §3
# [7] = test system: apolipoprotein B mRNA; experiment: Target mRNA levels in liver, lean vs high fat fed C57BL/6 mice; conditions: 50 mg/kg i.p. every three days, six weeks
# Method: as §3
sequence,measurement,setting,value
"GTCCCTGAAGATGTCAATGC (2'-MOE gapmer with phosphorothioates, pattern not given here) [ISIS 147764, 2′-MOE gapmer phosphorothioate oligonucleotide to mouse apolipoprotein B]",mRNA Percent Inhibition,[1]; 5 mg/kg i.p. every three days,2%
same,mRNA Percent Inhibition,[1]; 25 mg/kg i.p. every three days,42%
same,mRNA Percent Inhibition,[1]; 50 mg/kg i.p. every three days,70%
same,Percent Inhibition of cholesterol levels,"[2]; 5 mg/kg, 0 weeks",0%
same,Percent Inhibition of cholesterol levels,"[2]; 5 mg/kg, 2 weeks",5%
same,Percent Inhibition of cholesterol levels,"[2]; 5 mg/kg, 6 weeks",10%
same,triglycerides,[2]; 5 mg/kg,125 mg/dL
same,serum cholesterol,[2]; 5 mg/kg,225 mg/dL
same,Percent Inhibition of cholesterol levels,"[2]; 25 mg/kg, 0 weeks",0%
same,Percent Inhibition of cholesterol levels,"[2]; 25 mg/kg, 2 weeks",12%
same,Percent Inhibition of cholesterol levels,"[2]; 25 mg/kg, 6 weeks",45%
same,triglycerides,[2]; 25 mg/kg,150 mg/dL
same,serum cholesterol,[2]; 25 mg/kg,125 mg/dL
same,Percent Inhibition of cholesterol levels,"[2]; 50 mg/kg, 0 weeks",0%
same,Percent Inhibition of cholesterol levels,"[2]; 50 mg/kg, 2 weeks",20%
same,Percent Inhibition of cholesterol levels,"[2]; 50 mg/kg, 6 weeks",55%
same,triglycerides,[2]; 50 mg/kg,85 mg/dL
same,serum cholesterol,[2]; 50 mg/kg,110 mg/dL
same,Liver Enzymes ALT Percent Change,[3]; high fat fed C57BL/6 mice,Slight
same,Liver Enzymes AST Percent Change,[3]; high fat fed C57BL/6 mice,Slight
same,Liver Enzymes ALT Percent Change,[3]; lean C57BL/6 mice,No
same,Liver Enzymes AST Percent Change,[3]; lean C57BL/6 mice,Slight
same,changes in liver enzyme levels,"[3]; lean and high fat fed C57BL/6 mice, 50 mg/kg",No significant changes
same,ALT levels,[4]; 5 mg/kg,50 IU/L
same,AST levels,[4]; 5 mg/kg,105 IU/L
same,ALT levels,[4]; 25 mg/kg,70 IU/L
same,AST levels,[4]; 25 mg/kg,70 IU/L
same,ALT levels,[4]; 50 mg/kg,100 IU/L
same,AST levels,[4]; 50 mg/kg,80 IU/L
same,change in AST levels over the duration of the study compared to saline controls,"[4]; 5, 25 and 50 mg/kg",no significant change
same,serum glucose levels,[5]; 5 mg/kg,225 mg/dL
same,serum glucose levels,[5]; 25 mg/kg,190 mg/dL
same,serum glucose levels,[5]; 50 mg/kg,180 mg/dL
same,CHOL Percent Change,[6]; high fat fed C57BL/6 mice,−67%
same,GLUC Percent Change,[6]; high fat fed C57BL/6 mice,−28%
same,Lipoproteins HDL Percent Change,[6]; high fat fed C57BL/6 mice,−65%
same,Lipoproteins LDL Percent Change,[6]; high fat fed C57BL/6 mice,−87%
same,Lipoproteins VLDL Percent Change,[6]; high fat fed C57BL/6 mice,No
same,TRIG Percent Change,[6]; high fat fed C57BL/6 mice,No
same,CHOL Percent Change,[6]; lean C57BL/6 mice,−63%
same,GLUC Percent Change,[6]; lean C57BL/6 mice,No
same,Lipoproteins HDL Percent Change,[6]; lean C57BL/6 mice,−44%
same,Lipoproteins LDL Percent Change,[6]; lean C57BL/6 mice,−64%
same,Lipoproteins VLDL Percent Change,[6]; lean C57BL/6 mice,No
same,TRIG Percent Change,[6]; lean C57BL/6 mice,−34%
same,mRNA Percent Change,[7]; high fat fed (60% kcal fat) C57BL/6 mice,−87%
same,mRNA Percent Change,[7]; lean C57BL/6 mice,−73%

# From US8735364B2, “Antisense modulation of apolipoprotein B expression” (Genzyme Corporation, priority 2001, dated 2014)
